This note sets out measurements from ChEMBL document CHEMBL1151512, “Design and synthesis of new potential photoaffinity labels for mammalian squalene epoxidase” (Bioorg Med Chem Lett, 1997).

For this experiment, the system named is HepG2. As to the kind of experiment: In vitro cholesterol biosynthesis inhibition in human HepG2 by measuring the extend of cholesterol radiolabeling after incubation with [14C]mevalonate. The format is functional, cell-based.

Consider `CCN(C/C=C/C#CC(C)(C)C)Cc1cccc(OC[Si](C)(C)c2ccc(N=[N+]=[N-])cc2)c1`, for which the IC50 came out at 1200 nM.

As for `CCN(CC#Cc1ccccc1)Cc1cccc(OCc2cc(-c3ccsc3)cs2)c1`, inhibition was half-maximal at 70 nM (IC50).

Compound `CCN(CC#Cc1ccc(N=[N+]=[N-])cc1)Cc1cccc(OCc2cc(-c3ccsc3)cs2)c1` came in with an IC50 of 2100 nM.

On to `CCN(CC#Cc1cccc(N=[N+]=[N-])c1)Cc1cccc(OCc2cc(-c3ccsc3)cs2)c1`, for which the IC50 was 540 nM.

With `CCN(CC#Cc1ccccc1N=[N+]=[N-])Cc1cccc(OCc2cc(-c3ccsc3)cs2)c1`, the IC50 is > 100000 nM.

Regarding `CCN(C/C=C/C#CC(C)(C)C)Cc1cccc(OC[Si](C)(C)c2ccc(C#N)cc2)c1`, it took 60 nM to reach half-maximal inhibition (IC50).
